Measured values reported in a melting point compilation (Tetko et al.; mined from patent text by program, amines drawn as free bases though some values may be those of a salt).

First: CC(C)=NOCc1nc2c(N)nc(C)c(C)c2n1CCCCNS(C)(=O)=O
Second: Cc1cc(C)cc(COC(=O)C(Cc2c[nH]c3ccccc23)NS(C)(=O)=O)c1 (stereo not given)
The melting point of the first is higher: 157 to 159 °C for the first, 96 to 97 °C for the second.

Compared with `COc1ccc(Cn2c(Cl)nc3c(-c4ccc(Cl)o4)ncnc32)cc1`, `COc1ccc(Cn2c(=O)c3c(N4CCN(C)CC4)cc(Cl)cc3n(Cc3ccccc3)c2=O)cc1` is lower in melting point: 156 to 157 °C for the first, 81 to 89 °C for the second.

First: Cn1cc(-c2cncc(OC3SCC(O)C(O)C3O)c2)cn1 (stereo not given)
Second: CCOc1ccc(-c2ncc(C#N)cn2)cc1
The melting point of the first is higher: 216 °C for the first, 153 °C for the second.

First: CCc1cccc2c1N(CC(=O)N1CC3CCC(CC3)C1)C(=O)C(NC(=O)Nc1cccc(-c3nnn[nH]3)c1)N=C2c1ccccc1F (stereo not given)
Second: CCOC(=O)c1nccn1C1Cc2c(cccc2-c2ccccc2)C1=O (stereo not given)
The melting point of the first is higher: 226 to 232 °C for the first, 185 °C for the second.

Compared with `CCC(Oc1ccc([N+](=O)[O-])cc1)C(=O)NCc1ccccc1OC` (stereo not given), `COc1ccc(CN2C(=O)[C@@H](NC(=O)Cc3ccccc3)[C@H]2CO)c(OC)c1` (relative stereo) is higher in melting point: 109 to 112 °C for the first, 152 to 154 °C for the second.

First: Cc1ccc(C(=O)Nc2cn(C3CCCCO3)nc2C(=O)NCCC(F)(F)F)cn1 (stereo not given)
Second: O=C(NC(=O)c1c(F)cccc1F)Nc1ccc(C(F)(F)F)cn1
The melting point of the first is lower: 147 to 148 °C for the first, 215 to 220 °C for the second.

First: CCCN1Cc2c(Cl)nc(Cl)nc2N1
Second: CCCCc1nc(Cl)c(CO)n1Cc1ccc(NC(=O)[C@H](CC#N)NC(=O)OCc2ccccc2)cc1
The melting point of the first is lower: 80 to 84 °C for the first, 89 to 91 °C for the second.

Compared with `BrCCc1nc(-c2ccccc2)c(-c2ccccc2)o1`, `O=C(c1ccccc1)c1c(O)cc(-c2ccccc2)oc1=O` is higher in melting point: 72 to 74 °C for the first, 171 to 173 °C for the second.

First: Cc1cc(C)c(NC(=O)Nc2c(-c3ccccc3Cl)c3ccncc3n(C)c2=O)c(C)c1
Second: Cc1cc(NC(=O)c2c(Cl)cccc2Cl)c2nccc(Cl)c2c1
The melting point of the first is higher: 222 to 224 °C for the first, 203 to 205 °C for the second.

First: COC(=O)n1c(SCc2ccccn2)nc2ccccc21
Second: CCOC(=O)C(=O)c1oc(-n2cnc3ccccc32)nc1-c1ccc(Cl)cc1
The melting point of the first is lower: 78 °C for the first, 143 to 144 °C for the second.

First: FC(F)(F)c1cc(CO[C@@H]2CCCN(Cc3ccco3)[C@@H]2c2ccccc2)cc(C(F)(F)F)c1 (relative stereo)
Second: COc1ccc(CN2CCC(c3cn(Cc4ccoc4)c4ccccc34)CC2)cc1C(=O)O
The melting point of the first is lower: 103 to 104 °C for the first, 253 to 255 °C for the second.

First: O=Cc1ccnc2c(NC(=O)c3c(Cl)cccc3Cl)cccc12
Second: Cc1ccc(Cl)c(C(=O)c2ccc(Cl)cc2)c1Cl
The melting point of the first is higher: 239 °C for the first, 132 to 136 °C for the second.

Compared with `CN(C)Cc1nnc2n1-c1ccc(C(F)(F)F)cc1C(c1ccccc1)=[N+]([O-])C2`, `OCc1cc2cccc(Nc3cc(-c4ccc(C(F)(F)F)cc4)ncn3)c2[nH]1` is higher in melting point: 188 to 190 °C for the first, 221 to 223 °C for the second.

Compared with `CS(=O)(=O)Nn1c(=O)[nH]c2cc([N+](=O)[O-])c(-n3cnc(CO)c3)cc2c1=O`, `COC(=O)c1cccc([N+](=O)[O-])c1CS(N)(=O)=O` is lower in melting point: > 300 °C for the first, 119 to 123 °C for the second.

Compared with `CC(=O)OC(C(C)C(C)C)C(OC(C)=O)C(C)C1CCC2C3CC(=O)C4CC=CCC4(C)C3CCC12C` (stereo not given), `CC(=O)OCC1OC(OC(C)=O)C(N=[N+]=[N-])C(OC(C)=O)C1OC(C)=O` (stereo not given) is lower in melting point: 210 to 213 °C for the first, 131 to 132 °C for the second.

First: Nc1n[nH]c2ncnc(Nc3cccc(Cl)c3)c12
Second: Clc1cccc(Oc2ccc3[nH]ccc3c2)n1
The melting point of the first is higher: 232 to 234 °C for the first, 117 to 118 °C for the second.

Compared with `COc1ccc(N2C3CCC(C(=O)C3)C2c2ccc(Cl)cc2)cc1OC` (stereo not given), `COc1cc2nc(N3CCN(C(=O)CC(O)c4ccccc4)CC3)nc(N)c2cc1OC` (stereo not given) is higher in melting point: 42 to 43 °C for the first, 222 °C for the second.

First: CCOC(=O)c1cnc(SC)nc1NC
Second: CCOC(=O)c1ncn2c1C1C=CCN1C(=O)c1c(F)cccc1-2 (stereo not given)
The melting point of the first is lower: 91 to 93 °C for the first, 200 to 201 °C for the second.

Compared with `COc1cccc2c1C(=O)OC2(C)O` (stereo not given), `CC1(C)OC(=O)Nc2ccc(-c3cccc(Br)c3)cc21` is higher in melting point: 156 to 158 °C for the first, 174 to 175 °C for the second.

Compared with `NC1N=CC=CC1(N)Br` (stereo not given), `COc1ccc([C@]2(O)OCC(C)(C)N[C@H]2C)cc1` is higher in melting point: 158 to 160 °C for the first, 170 to 172 °C for the second.

First: CN1CCN(C(=NNc2ccccc2Cl)c2ccccc2F)CC1
Second: Cc1ccc2c(c1)N=C(N1CCN(C)CC1)c1cccc3c1N2CC3
The melting point of the first is lower: 109 to 111 °C for the first, 160 to 162 °C for the second.

First: N#CCCN1C(=O)C2(COc3cc4c(cc32)OCO4)c2ccccc21 (stereo not given)
Second: O=C1c2nc[nH]c2N(Cc2ccccc2)C2=NCCN12
The melting point of the first is lower: 200 to 202 °C for the first, 262 to 264 °C for the second.

First: Cc1cccc(-c2n[nH]cc2-c2ccc(F)c(-c3ccc[nH]3)c2)n1
Second: COS(=O)(=O)Oc1ccc(-c2cccc(-c3nc(C(C)C)[nH]c3-c3cccc(C)n3)c2)cc1
The melting point of the first is higher: 141 to 142 °C for the first, 95 to 105 °C for the second.

First: Nc1cccc(Cn2c(-c3ccc(Nc4cncnc4)cc3)ccc2-c2ccccc2Cl)n1
Second: COc1ccc(Oc2nc(Nc3cccc(C(=O)O)c3)nc(Oc3ccccc3)n2)cc1
The melting point of the first is lower: 88 to 90 °C for the first, 233 to 236 °C for the second.

First: COC(=O)C1=Cc2cc(-c3ccc(F)cc3)ccc2S(=O)(=O)CC1
Second: CNS(=O)(=O)c1ccc(N2CCC(C(=O)OC)=Cc3cc(Br)ccc32)cc1
The melting point of the first is lower: 180 to 183 °C for the first, 201 to 204 °C for the second.

Compared with `CN(C)CCCN(c1ccccc1)c1ncccc1NC(=O)c1ccccc1[N+](=O)[O-]`, `OC(CCl)CNC(c1ccccc1)c1ccccc1` (stereo not given) is lower in melting point: 134 to 136 °C for the first, 66 to 68 °C for the second.

Compared with `C=C(COc1ccccc1C=NO)c1ccccc1`, `O=C(c1ccccc1)c1ccc(OCCBr)cc1O` is higher in melting point: 61 to 62 °C for the first, 87 to 89.5 °C for the second.

First: COc1ccc(C2NCCS2)cc1 (stereo not given)
Second: O=C(O)C(=O)N1CCC(Oc2ccc(F)cc2)CC1
The melting point of the first is lower: 94 to 95 °C for the first, 147 to 149 °C for the second.

Compared with `O=C(NCC1Cc2cc(Cl)cc(-c3ccsc3)c2O1)OCc1ccccc1` (stereo not given), `O=c1[nH]c2cc(Cl)ccc2c(=O)c(-c2ccccc2)c1O` is higher in melting point: 90 to 92 °C for the first, 193 to 196 °C for the second.

First: CC(C)(C)OC(=O)CN1CCN(CC(=O)O)C1=O
Second: O=C(O)c1cnc(N2CCN(CC3CC3)C2=O)s1
The melting point of the first is lower: 112 to 113 °C for the first, 250 to 252 °C for the second.

First: O=S1(=O)NCN(CCF)c2cc(F)c(F)cc21
Second: CN1Cc2cc(F)ccc2-n2c(c(C#CC(C)(O)C3CC3)[nH]c2=O)C1 (stereo not given)
The melting point of the first is lower: 128 to 130 °C for the first, 191 to 192 °C for the second.

Compared with `N#Cc1ccc(-c2c3c(cc4ccc(O)cc24)-c2ccc(O)cc2CO3)cc1`, `Cc1ccc(-c2nc(-c3ccc(C)cc3C)nc(-c3ccc(OCC(=O)OC4CC(C)(C)N(OC5CCCCC5)C(C)(C)C4)cc3O)n2)c(C)c1` is lower in melting point: > 250 °C for the first, 105 to 109 °C for the second.

First: CC1(C)C=C(CS(=O)(=O)c2ccccc2)C(C)(C)CC1
Second: CCNC(=NS(=O)(=O)c1ccc(O)cc1)N1N=CCC1c1ccccc1 (stereo not given)
The melting point of the first is lower: 48 to 50 °C for the first, 158 to 160 °C for the second.

`COCCOc1ccc(CCCOC(=O)NS(=O)(=O)NCCc2ccccn2)c(Oc2ncc(C(F)(F)F)cc2Cl)c1` and `C[C@@H](C(=O)OC(C)(C)C)N(Cc1ccccc1)S(=O)(=O)c1ccc2c(Cl)cnc(Cl)c2c1` cannot be ordered by melting point: 91 to 93 °C for the first, 92 to 96 °C for the second.

Compared with `C=CCOc1ccc(C(=O)c2ccc(Cl)c(S(=O)(=O)N=CN(C)C)c2)c(Cl)c1Cl`, `CCCc1c(OCc2ccc(C(=O)O)c(Br)c2)ccc(C(C)=O)c1O` is lower in melting point: 141 to 142 °C for the first, 80 to 83 °C for the second.

Compared with `C=CCNC(=O)[C@H]1N(C(=O)[C@@H](O)[C@H](Cc2ccccc2)NC(=O)c2cccc(O)c2C)CSC1(C)C`, `CCOC(=O)[C@H](CSCc1ccc(C)c(C)c1)NC(=O)C(CSC(C)=O)Cc1ccccc1` (stereo not given in full) is lower in melting point: 173 to 175 °C for the first, 51 to 55 °C for the second.

Compared with `COC1CCc2[nH]c3ccccc3c2C1` (stereo not given), `C[C@@H](Nc1ncnc2cc(OC3CCC3)c([N+](=O)[O-])cc12)c1ccccc1` is higher in melting point: 105 °C for the first, 108 to 110 °C for the second.

Compared with `COC(=O)Cn1c(=S)sc2ccccc21`, `CCCCCn1c(=O)c2cc(C(=O)O)cn2c2ccccc21` is higher in melting point: 127 to 128 °C for the first, 184 to 186 °C for the second.

Compared with `COc1ccc(C(=O)NCc2cccc3c2C(=O)N(C2CCC(=O)NC2=O)C3=O)cc1` (stereo not given), `COc1ccc2ccc(N3C(=O)c4ccccc4C3NCCCN(C)C)nc2n1` (stereo not given) is lower in melting point: 193 to 195 °C for the first, 128 °C for the second.

Compared with `[N-]=[N+]=Nc1cc(=O)oc2ccccc12`, `O=C(O)COCc1ccccc1` is lower in melting point: 159 to 160 °C for the first, 81 to 83 °C for the second.

Compared with `CN(C)c1ccc(-c2cc3nccnc3[nH]2)cc1`, `O=c1[nH]c2c(n3ccnc13)C(NS(=O)(=O)c1ccccc1)c1ccccc1-2` (stereo not given) is lower in melting point: 297 to 298 °C for the first, 216 °C for the second.

Compared with `OCc1ccc2c(ccn2-c2ccnc(N[C@H]3CC[C@H](O)CC3)n2)c1`, `COc1cc2ncc(O[C@H]3CC[C@H](C(=O)O)CC3)nc2cc1OC` is lower in melting point: 232 to 234 °C for the first, 90 to 93 °C for the second.

Compared with `COC(=O)c1ccc(CC(C)NCC(O)c2ccccc2Cl)cc1` (stereo not given), `COCn1cc(C(=O)c2ccccc2)c(-c2cccc(Cl)c2)n1` is lower in melting point: 109 to 110 °C for the first, 106 to 108 °C for the second.

First: O=Cc1coc(C(O)c2ccc(Br)cc2)c1 (stereo not given)
Second: CSc1ccc(C(O)CBr)cc1Cl (stereo not given)
The melting point of the first is lower: 83 to 84 °C for the first, 86 to 87 °C for the second.

First: CC(C)C(=O)N[C@@H](CS)C(=O)NCCSC(=O)c1ccccc1
Second: COC(C)(C(=S)N(C)C)c1ccccn1 (stereo not given)
The melting point of the first is higher: 127 to 130 °C for the first, 67.8 to 70 °C for the second.

First: Cc1cc(C)c(-n2c(C)c(C)c3c(C#N)nc(C)nc32)c(C)c1
Second: CN1C(C)(C)CC(OC(=O)CCc2cc(-n3nc4ccc(Cl)cc4n3)c(O)c(C(C)(C)C)c2)CC1(C)C
The melting point of the first is higher: 188 to 190 °C for the first, 150 to 158 °C for the second.

First: O=S1(=O)CCCS(=O)(=O)N1F
Second: CCOC(=O)N1CCN(c2nc(C)nc3c2OCC(=O)N3CC(N)=O)CC1
The melting point of the first is lower: 171 to 172 °C for the first, 225 to 227 °C for the second.

First: OC(CNCCCOCCCCCCc1ccccc1)c1ccc2c(n1)COC(c1ccccc1)O2 (stereo not given)
Second: CCOc1ccc(C(=O)N2c3ccccc3C(N3CCCc4ccccc43)CC2C)cc1OCC (stereo not given)
The melting point of the first is lower: 64 to 68 °C for the first, 157 to 158 °C for the second.

First: CC(=O)NC1(c2ccc(C(C)Cl)cc2)CC1 (stereo not given)
Second: NC(=O)C(Br)c1c(Cl)cc([N+](=O)[O-])cc1Cl (stereo not given)
The melting point of the first is lower: 104 to 107 °C for the first, 195 to 197 °C for the second.

First: Cc1nc(N2CCc3ccc(F)cc3CC2)c([N+](=O)[O-])c(=O)[nH]1
Second: C=C(CBr)S(=O)(=O)C(C)(C)C
The melting point of the first is higher: > 200 °C for the first, 40.5 to 42 °C for the second.
